One substance from patent publication US20250136618A1, “ANTIBIOTIC PYRAZINOTHIAZINE DERIVATIVES AND PROCESS OF PREPARATION THEREOF” (Bugworks Research India PVT Ltd, priority 2021, published 2025) can be followed below.

Some results are limits rather than exact numbers.

Assay type in all cases: cell-based
For one data set, the system named is Proteus mirabilis. The experiment in a line: MIC90 determination, clinical strains (CLSI). Particulars: N=12.
Another data set deals with Citrobacter freundii. The experiment in a line: MIC90 determination, clinical strains (CLSI). Particulars: N=19.
The subject of a further data set is CHO-K1 cells. The experiment in a line: In-vitro micronucleus assay. The protocol:
Genetic toxicology studies were performed on the compounds of the present disclosure to assess their ability to cause DNA damage. The in-vitro micronucleus assay measured the concentration (μM) of the compound at which micronuclei formation occurred. A micronuclei formation at lower concentration indicates more genetic damage or genotoxicity.
Micronucleus formation is a hallmark of genotoxicity, and the micronucleus assay is an important component of genotoxicity screening. Micronuclei are chromatin-containing bodies that represent fragments or even whole chromosomes that were not incorporated into a daughter cell nucleus at mitosis. The purpose of the assay is to detect agents that induce chromosome damage leading to the induction of micronuclei in interphase cells. The in vitro micronucleus assay was conducted in CHO-K1 cells according to the procedure described by Diaz, D et al [Mutat Res. 630(1-2):1-13. […] The formation of the micronucleus is identified by image-based high content analysis from binucleated cells.

The next data set has as its system Klebsiella pneumoniae. In words: MIC90 determination, clinical strains (CLSI). Particulars: N=86.
In another data set the test system is Serratia marcescens. In words: MIC90 determination, clinical strains (CLSI). The settings on record: N=15.
For the next data set, the system named is Pseudomonas aeruginosa. In words: MIC90 determination, clinical strains (CLSI). The settings on record: N=34.
Another data set has as its system Morganella morganii. In words: MIC90 determination, clinical strains (CLSI). The settings on record: N=11.
Another data set has as its system Acinetobacter baumannii. In words: MIC90 determination, clinical strains (CLSI). The settings on record: N=38.
For the next data set, the system named is Escherichia coli. The experiment in a line: MIC90 determination, clinical strains (CLSI). The settings on record: N=38.
Data set [1] relates to Escherichia coli ATCC 25922. The experiment in a line: Minimum Inhibitory Concentration (MIC) in LB media. An excerpt:
(§1) The compounds of Formula Ia and Formula Ib are of interest due to their potent antibacterial effects. The ability of the compounds disclosed herein to achieve an antibacterial effect may be evaluated with regard to their ability to inhibit the growth of bacterial species like Escherichia coli ATCC 25922, Staphylococcus aureus ATCC 29213, Klebsiella pneumoniae ATCC 13883, Acinetobacter baumannii ATCC 19606, Pseudomonas aeruginosa ATCC 27853 and Enterococcus faecalis ATCC 29212 using an assay based on the following Minimum Inhibitory Concentration (MIC) protocol:
(§2) The test bacteria were grown in Luria Bertani Broth (HIMEDIA M1245), 25 g of the powder was dissolved in 1000 ml distilled water and sterilized by autoclaving at 15 lbs pressure (121° C.) for 20 minutes. The medium sterility was checked by incubating at 37° C. for a period of 48 h. Bacterial cultures that were stored as glycerol stocks at −80° C. were subcultured on LB agar plates to obtain isolated colonies. A single colony of each strain was cultured in LB broth. The cultures were incubated at 37° C., 200 rpm till they reached an optical density (OD at 600 nm) of 0.8 to 1. This log phase culture was diluted in LB broth to a cell number of 5-8*10^5 CFU/mL to be used as inoculum for MIC experiments. Test compounds were dissolved in dimethyl sulfoxide (DMSO) to a stock concentration of 4 mg/ml. A two-fold dilution series of this DMSO stock was prepared in a 96 well V bottom microtitre plate from rows A to H. A 3 μL volume of these dilutions are transferred to a 96-well flat bottom microtitre assay plate. Controls to monitor the effects of DMSO and media sterility were included. Each well was inoculated with 150 μL of the above diluted culture. The plates were incubated at 37° C. overnight in a humidified incubator. The following morning, the plates were read using a Spectrophotometer at 600 nm wavelength. […] The antibacterial activity (MIC) determined against representative gram-positive (S. aureus, E. faecalis) and gram-negative (E. coli, Aeruginosa, K. pneumoniae, and A. baumannii) pathogen are reported Table 1.

The subject of data set [2] is Pseudomonas aeruginosa ATCC 27853. In words: Minimum Inhibitory Concentration (MIC) in LB media.
Excerpt: as §1, §2

The test system of data set [3] is Enterococcus faecalis ATCC 29212. In words: Minimum Inhibitory Concentration (MIC) in LB media.
Excerpt: as §1, §2

Data set [4] has as its system Klebsiella pneumoniae ATCC 13883. The experiment in a line: Minimum Inhibitory Concentration (MIC) in LB media.
Excerpt: as §1, §2

Data set [5] relates to Acinetobacter baumannii ATCC 19606. The experiment in a line: Minimum Inhibitory Concentration (MIC) in LB media.
Excerpt: as §1, §2

The subject of data set [6] is Staphylococcus aureus ATCC 29213. In words: Minimum Inhibitory Concentration (MIC) in LB media.
Excerpt: as §1, §2

Data set [7] concerns Klebsiella aerogenes, K. oxytoca. The experiment in a line: MIC90 determination, clinical strains (CLSI). Particulars: N=17.
The test system of data set [8] is Providencia rettgeri, P. stuartii. In words: MIC90 determination, clinical strains (CLSI). The settings on record: N=12.
The subject of the next data set is Enterobacter cloacae. The experiment in a line: MIC90 determination, clinical strains (CLSI). Particulars: N=26.
In the next data set the target is hERG potassium channel (Homo sapiens (Human), UniProt Q12809). In words: hERG inhibition assay (Qpatch HTX automated electrophysiology). Particulars: CHO cell line expressing hERG, whole-cell patch clamp. On the procedure: Electrophysiological recordings were made from a Chinese Hamster Ovary cell line stably expressing the full-length hERG potassium channel. Single cell ionic currents were measured in whole-cell patch clamp configuration at room temperature (21-23° C.) using the Qpatch HTX platform (Sophion). Intracellular solution contained (mM): 120 KF, 20 KCl, 10 EGTA, 10 HEPES and was buffered to pH 7.3. […] Cells were clamped at a holding potential of −80 mV. Cells were stepped to +20 mV for 2 s then −40 mV for 3 s before returning to the holding potential. […] Compounds were then incubated for 2 minutes prior to a second measurement of ion channel current using an identical pulse train.
Chain of hERG potassium channel (Q12809 whole entry): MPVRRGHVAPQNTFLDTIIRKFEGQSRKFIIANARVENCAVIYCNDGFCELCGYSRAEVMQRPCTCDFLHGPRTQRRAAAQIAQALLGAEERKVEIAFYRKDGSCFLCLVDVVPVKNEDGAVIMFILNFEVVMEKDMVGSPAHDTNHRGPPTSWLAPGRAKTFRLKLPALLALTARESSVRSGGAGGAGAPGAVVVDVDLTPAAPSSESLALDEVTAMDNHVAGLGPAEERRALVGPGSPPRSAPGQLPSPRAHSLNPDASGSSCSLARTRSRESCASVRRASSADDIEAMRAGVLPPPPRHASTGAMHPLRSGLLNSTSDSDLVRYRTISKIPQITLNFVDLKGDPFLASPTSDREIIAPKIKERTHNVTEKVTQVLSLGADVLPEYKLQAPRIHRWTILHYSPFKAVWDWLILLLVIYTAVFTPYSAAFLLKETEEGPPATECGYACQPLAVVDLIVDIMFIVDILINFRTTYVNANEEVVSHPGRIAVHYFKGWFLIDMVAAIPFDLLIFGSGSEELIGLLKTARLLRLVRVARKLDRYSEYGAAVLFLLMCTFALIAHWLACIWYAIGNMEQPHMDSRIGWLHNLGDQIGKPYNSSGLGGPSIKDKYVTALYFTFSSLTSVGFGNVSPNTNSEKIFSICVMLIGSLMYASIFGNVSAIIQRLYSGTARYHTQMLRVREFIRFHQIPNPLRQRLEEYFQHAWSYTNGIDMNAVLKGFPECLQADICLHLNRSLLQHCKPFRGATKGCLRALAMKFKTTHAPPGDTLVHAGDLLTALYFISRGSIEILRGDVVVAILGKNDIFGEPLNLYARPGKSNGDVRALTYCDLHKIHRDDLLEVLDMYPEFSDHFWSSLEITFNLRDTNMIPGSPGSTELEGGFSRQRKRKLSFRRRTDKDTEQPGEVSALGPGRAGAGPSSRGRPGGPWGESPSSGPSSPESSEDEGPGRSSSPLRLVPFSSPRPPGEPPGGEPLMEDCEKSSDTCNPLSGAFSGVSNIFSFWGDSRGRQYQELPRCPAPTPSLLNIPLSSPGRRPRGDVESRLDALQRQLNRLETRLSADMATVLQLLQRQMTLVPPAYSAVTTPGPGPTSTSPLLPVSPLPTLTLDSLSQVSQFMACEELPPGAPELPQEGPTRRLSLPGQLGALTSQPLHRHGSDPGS

For the substance “(S)-5-(((2-((4-Methyl-d3)-3-oxo-1,2,3,4-tetrahydropyrido[2,3-b]pyrazin-6-yl)oxy)ethyl)amino)methyl)-3-(3-oxo-3,4-dihydro-2H-pyrazino[2,3-b][1,4]thiazin-6-yl)oxazolidin-2-one [Compound 10]”, the “MIC 90 Proteus mirabilis” value with Proteus mirabilis was found to be 4 µg/mL. In addition, the “MIC 90 Citrobacter freundii” value against Citrobacter freundii was 2 µg/mL. The “genotoxicity risk (in words)” value in the data set with CHO-K1 cells is listed as “completely devoid of any genotoxicity risk”. Moreover, in the data set on CHO-K1 cells (CHO-K1 cells), the “% (in-vitro micronucleus assay)” value is recorded as 0.45% and the “In vitro micronucleus forming concentration” value is more than 1000 µM. Moreover, the “MIC 90 Klebsiella pneumoniae” value against Klebsiella pneumoniae is 8 µg/mL. The “MIC 90 Serratia marcescens” value with Serratia marcescens is 16 µg/mL. The “MIC 90 Pseudomonas aeruginosa” value in the data set on Pseudomonas aeruginosa amounted to 4 µg/mL. In addition, the “MIC 90 Morganella morganii” value in the data set with Morganella morganii was found to be 1 µg/mL. Besides, in the data set with Acinetobacter baumannii, the “MIC 90 Acinetobacter baumannii” value was determined as 1 µg/mL. Further, the “MIC 90 Escherichia coli” value against Escherichia coli stood at 0.5 µg/mL. Besides, the “Minimum Inhibitory Concentration E. coli ATCC 25922” value in [1] amounted to 0.06 µg/mL. Also, the “Minimum Inhibitory Concentration Aeruginosa ATCC 27853” value in [2] was determined as 1 µg/mL. The “Minimum Inhibitory Concentration E. faecalis ATCC 29212” value in [3] worked out at 0.125 µg/mL. Besides, the “Minimum Inhibitory Concentration K. pneumoniae ATCC 13883” value in [4] turned out to be 0.06 µg/mL. Further, the “Minimum Inhibitory Concentration A. baumannii ATCC 19606” value in [5] was 0.06 µg/mL. The “Minimum Inhibitory Concentration S. aureus ATCC 29213” value in data set [6] was less than 0.015 µg/mL. Moreover, the “MIC 90 Klebsiella aerogenes, K. oxytoca” value in data set [7] came out at 2 µg/mL. For the same substance, in [8], the “MIC 90 Providencia rettgeri, P. stuartii” value is 1 µg/mL. In addition, the “MIC 90 Enterobacter cloacae” value in the data set with Enterobacter cloacae worked out at 8 µg/mL. The IC50 against hERG potassium channel is 157 µM.
